Reference: patent US20150344457A1, “METHODS OF INHIBITING PRMT5” (EPIZYME, INC., priority 2012, published 2015)
pEC50: −log10 of the molar value.

Tests used:
[1] = test system: Z-138 cells; assay: Z-138 Methylation Assay (In Cell Western for symmetric di-methyl arginine and DNA content); format: cell-based; details: Homo sapiens
Procedure, shortened: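 Z-138 cells at 50,000 cells/mL exposed to compound 96 h at 37 °C, then attached to poly-D-lysine plates, fixed with paraformaldehyde and probed with anti-symmetric di-methyl arginine plus DRAQ5 DNA stain. 800/700 nm ratio normalized to DMSO and 3 μM reference controls; IC50 from triplicate wells.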

[2] = test system: Z-138 cells; assay: Z-138 Proliferation Assay (Cell Titer Glo, 5 days); format: cell-based; details: Homo sapiens
Procedure, shortened: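 Exponentially growing Z-138 cells (10,000 cells/ml) in RPMI 1640 with 10% FBS are exposed to nine-point 3-fold dilutions (final top concentration 20 μM, 0.2% DMSO) for 5 days at 37° C. Viability is measured as ATP by CellTiter-Glo luminescence. The 50% inhibitory concentration comes from a 4-parameter fit.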

[3] = Table A-2, 96 hours, symmetric di-methyl arginine, read-out: ICW EC50
[4] = 120 h, Table A-2, 5 days, top concentration 20 μM

| SMILES | pEC50 [1, 3] | pEC50 [2, 4] | pEC50 ([1]; Table D-2, read-out: ICW EC50) | pEC50 ([2]; Table D-2) |
| --- | --- | --- | --- | --- |
| O=C(COc1cccc(CN2CCOCC2)c1)NCC(O)CN1CCc2ccccc2C1 (stereo not shown) [Compound A75] | > 7.00 | 5.00 to 6.00 |  |  |
| C[C@H](Oc1cccc2cccnc12)C(=O)NC[C@H](O)CN1CCc2ccccc2C1 [Compound A76] | 6.00 to 7.00 | 5.00 to 6.00 |  |  |
| O=C(COc1ccccc1N1CCOCC1)NC[C@H](O)CN1CCc2ccccc2C1 [Compound A77] | > 7.00 | 5.00 to 6.00 |  |  |
| O=C(COc1ccccc1N1CCNCC1)NCC(O)CN1CCc2ccccc2C1 (stereo not shown) [Compound A79] | 6.00 to 7.00 | 5.00 to 6.00 |  |  |
| CN1C(=O)COc2cccc(OCC(=O)NCC(O)CN3CCc4ccccc4C3)c21 (stereo not shown) [Compound A80] | 6.00 to 7.00 | 4.30 to 5.00 |  |  |
| CN1CCOc2cccc(OCC(=O)NCC(O)CN3CCc4ccccc4C3)c21 (stereo not shown) [Compound A81] | > 7.00 | 6.00 to 7.00 |  |  |
| Cn1ncc2c(OCC(=O)NCC(O)CN3CCc4ccccc4C3)cccc21 (stereo not shown) [Compound A82] | > 7.00 | 5.00 to 6.00 |  |  |
| O=C(COc1cccc(C(=O)N2CCOCC2)c1)NCC(O)CN1CCc2ccccc2C1 (stereo not shown) [Compound A83] | 6.00 to 7.00 | 4.30 to 5.00 |  |  |
| CN1CCN(c2ccccc2OCC(=O)NC[C@H](O)CN2CCc3ccccc3C2)CC1 [Compound A84] | 6.00 to 7.00 | 5.00 to 6.00 |  |  |
| O=C(COc1ccccc1OCCN1CCOCC1)NC[C@H](O)CN1CCc2ccccc2C1 [Compound A86] | 6.00 to 7.00 | 4.30 to 5.00 |  |  |
| CN(C)CCOc1ccccc1OCC(=O)NC[C@H](O)CN1CCc2ccccc2C1 [Compound A88] | 6.00 to 7.00 | 4.30 to 5.00 |  |  |
| CC(=O)N1CCN(c2ccccc2OCC(=O)NCC(O)CN2CCc3ccccc3C2)CC1 (stereo not shown) [Compound A90] | 6.00 to 7.00 | 4.30 to 5.00 |  |  |
| O=C(COc1cccc2c1CCNC2)NCC(O)CN1CCc2ccccc2C1 (stereo not shown) [Compound A91] | 6.00 to 7.00 | 5.00 to 6.00 |  |  |
| O=C(COc1cccc2nccnc12)NCC(O)CN1CCc2ccccc2C1 (stereo not shown) [Compound A92] | > 7.00 | 5.00 to 6.00 |  |  |
| O=C(COc1cccc(NC2CCOCC2)c1)NCC(O)CN1CCc2ccccc2C1 (stereo not shown) [Compound A93] | > 7.00 | 5.00 to 6.00 |  |  |
| O=C(COc1c(CN2CCOCC2)ccc2cccnc12)NC[C@H](O)CN1CCc2ccccc2C1 [Compound A94] | 6.00 to 7.00 | 4.30 to 5.00 |  |  |
| O=C(COc1ccc2c(cnn2C2CCNC2)c1)NCC(O)CN1CCc2ccccc2C1 (stereo not shown) [Compound A95] | 6.00 to 7.00 | 4.30 to 5.00 |  |  |
| Cn1cnc2ccc(-c3cccc(NCC(O)CN4CCc5ccccc5C4)c3)cc21 (stereo not shown) [Compound D102] |  |  | 6.00 to 7.00 | 5.00 to 6.00 |
| OC(COc1cccc(-c2ccc3ncn(C4CCOCC4)c3c2)c1)CN1CCc2ccccc2C1 (stereo not shown) [Compound D103] |  |  | 6.00 to 7.00 | 5.00 to 6.00 |
| OC(COc1cccc(-c2ccc3ncn(-c4ccccc4)c3c2)c1)CN1CCc2ccccc2C1 (stereo not shown) [Compound D104] |  |  | 5.00 to 6.00 | < 4.70 |
| OC(COc1cccc(-c2ccc3ncn(Cc4ccccc4)c3c2)c1)CN1CCc2ccccc2C1 (stereo not shown) [Compound D105] |  |  | 5.00 to 6.00 | 4.40 to 5.00 |
| Cn1ncc2ccc(-c3cccc(OCC(O)CN4CCc5ccccc5C4)c3)cc21 (stereo not shown) [Compound D106] |  |  | 5.00 to 6.00 | < 4.70 |

| SMILES | pEC50 [1, 3] | pEC50 [2, 4] | pEC50 ([1]; Table D-2, read-out: ICW EC50) | pEC50 ([2]; Table D-2) |
| --- | --- | --- | --- | --- |
| OC(COc1cccc(-c2ccc3[nH]ncc3c2)c1)CN1CCc2ccccc2C1 (stereo not shown) [Compound D107] |  |  | 5.00 to 6.00 | < 4.70 |
| Cn1ncc2cc(-c3cccc(OCC(O)CN4CCc5ccccc5C4)c3)ccc21 (stereo not shown) [Compound D108] |  |  | 5.00 to 6.00 | 4.40 to 5.00 |
| O=c1[nH]c2ccc(-c3cccc(OCC(O)CN4CCc5ccccc5C4)c3)cc2[nH]1 (stereo not shown) [Compound D109] |  |  | 6.00 to 7.00 | 4.40 to 5.00 |
| Cc1ccncc1-c1cccc(OCC(O)CN2CCc3ccccc3C2)c1 (stereo not shown) [Compound D113] |  |  | 6.00 to 7.00 | 4.40 to 5.00 |
| CN(CC(O)CN1CCc2ccccc2C1)c1cccc(CNC2CCOCC2)c1 (stereo not shown) [Compound D116] |  |  | 5.00 to 6.00 | < 4.70 |
| Cn1cnc2ccc(-c3cccc(NCC(O)CN4CCc5ccccc5C4)n3)cc21 (stereo not shown) [Compound D117] |  |  | 5.00 to 6.00 | < 4.70 |
| Cn1cnc2ccc(-c3ccnc(NCC(O)CN4CCc5ccccc5C4)c3)cc21 (stereo not shown) [Compound D118] |  |  | 6.00 to 7.00 | 5.00 to 6.00 |
| Cn1cnc2ccc(-c3ccnc(NCC(O)CN4CCc5ccccc5C4)n3)cc21 (stereo not shown) [Compound D119] |  |  | 6.00 to 7.00 | 5.00 to 6.00 |
| Cn1cnc2ccc(-c3cncc(NCC(O)CN4CCc5ccccc5C4)n3)cc21 (stereo not shown) [Compound D121] |  |  | 6.00 to 7.00 | < 4.70 |
| OC(COc1cccc(-c2ccc(C(F)(F)F)cc2C(F)(F)F)c1)CN1CCc2ccccc2C1 (stereo not shown) [Compound D124] |  |  | 4.40 to 5.00 | < 4.70 |
| CN(C)c1ncc(-c2cccc(OCC(O)CN3CCc4ccccc4C3)c2)cn1 (stereo not shown) [Compound D125] |  |  | 5.00 to 6.00 | 4.40 to 5.00 |
| O=C(c1cccc(-c2cccc(OCC(O)CN3CCc4ccccc4C3)c2)c1)N1CCOCC1 (stereo not shown) [Compound D126] |  |  | 5.00 to 6.00 | < 4.70 |
| OC(COc1cccc(-c2ccc(C(F)(F)F)cc2Cl)c1)CN1CCc2ccccc2C1 (stereo not shown) [Compound D127] |  |  | 4.40 to 5.00 | < 4.70 |
| CS(=O)(=O)Nc1ccc(-c2cccc(OCC(O)CN3CCc4ccccc4C3)c2)cc1 (stereo not shown) [Compound D129] |  |  | 5.00 to 6.00 | 4.40 to 5.00 |
| CS(=O)(=O)c1cccc(-c2cccc(OCC(O)CN3CCc4ccccc4C3)c2)c1 (stereo not shown) [Compound D130] |  |  | 5.00 to 6.00 | < 4.70 |
| CS(=O)(=O)c1ccccc1-c1cccc(OCC(O)CN2CCc3ccccc3C2)c1 (stereo not shown) [Compound D131] |  |  | 5.00 to 6.00 | < 4.70 |
| OC(COc1cccc(-c2ccccc2C(F)(F)F)c1)CN1CCc2ccccc2C1 (stereo not shown) [Compound D132] |  |  | 5.00 to 6.00 | < 4.70 |
| COc1ccc(Cl)cc1-c1cccc(OCC(O)CN2CCc3ccccc3C2)c1 (stereo not shown) [Compound D134] |  |  | 5.00 to 6.00 | < 4.70 |
| COC(=O)c1cccc(-c2cccc(OCC(O)CN3CCc4ccccc4C3)c2)c1 (stereo not shown) [Compound D135] |  |  | < 4.70 | < 4.70 |
| Cn1ncc2ccc(-c3cc(COCC(O)CN4CCc5ccccc5C4)on3)cc21 (stereo not shown) [Compound D136] |  |  | 5.00 to 6.00 | < 4.70 |
| CC(=O)c1ccc(-c2cccc(OCC(O)CN3CCc4ccccc4C3)c2)cc1 (stereo not shown) [Compound D137] |  |  | 5.00 to 6.00 | < 4.70 |
| Cc1ccc(F)c(-c2cccc(OCC(O)CN3CCc4ccccc4C3)c2)c1 (stereo not shown) [Compound D138] |  |  | 5.00 to 6.00 | < 4.70 |

| SMILES | pEC50 [1, 3] | pEC50 [2, 4] | pEC50 ([1]; Table D-2, read-out: ICW EC50) | pEC50 ([2]; Table D-2) |
| --- | --- | --- | --- | --- |
| OC(COc1cccc(-c2cccnc2F)c1)CN1CCc2ccccc2C1 (stereo not shown) [Compound D139] |  |  | 5.00 to 6.00 | < 4.70 |
| Cn1ccc2cnc(-c3cccc(OCC(O)CN4CCc5ccccc5C4)c3)nc21 (stereo not shown) [Compound D141] |  |  | 6.00 to 7.00 | < 4.70 |
| O=C(Nc1cccc(OCC(O)CN2CCc3ccccc3C2)c1)c1cnccn1 (stereo not shown) [Compound D145] |  |  | 5.00 to 6.00 | < 4.70 |
| Cn1ccc2ccc(-c3cccc(OCC(O)CN4CCc5ccccc5C4)c3)cc21 (stereo not shown) [Compound D147] |  |  | 5.00 to 6.00 | 4.40 to 5.00 |
| O=C1NCc2ccc(-c3cccc(OCC(O)CN4CCc5ccccc5C4)c3)cc21 (stereo not shown) [Compound D148] |  |  | 5.00 to 6.00 | 4.40 to 5.00 |
| CN1CCN(c2ccc(-c3cccc(OCC(O)CN4CCc5ccccc5C4)c3)cn2)CC1 (stereo not shown) [Compound D149] |  |  | 5.00 to 6.00 | 5.00 to 6.00 |
| CC(C)(C)OCc1cccc(-c2cccc(OCC(O)CN3CCc4ccccc4C3)c2)c1 (stereo not shown) [Compound D150] |  |  | 5.00 to 6.00 | < 4.70 |
| CN(C)c1ccc(-c2cccc(OCC(O)CN3CCc4ccccc4C3)c2)cc1 (stereo not shown) [Compound D151] |  |  | 5.00 to 6.00 | < 4.70 |
| NC(=O)c1ccc(-c2cccc(OCC(O)CN3CCc4ccccc4C3)c2)cc1 (stereo not shown) [Compound D152] |  |  | 5.00 to 6.00 | < 4.70 |
| O=C1COc2ccc(-c3cccc(OCC(O)CN4CCc5ccccc5C4)c3)cc2N1 (stereo not shown) [Compound D156] |  |  | 5.00 to 6.00 | 4.40 to 5.00 |
| Cn1nccc1C(=O)Nc1cccc(OCC(O)CN2CCc3ccccc3C2)c1 (stereo not shown) [Compound D160] |  |  | 5.00 to 6.00 | < 4.70 |
| O=C(Nc1cccc(OCC(O)CN2CCc3ccccc3C2)c1)c1cncnc1 (stereo not shown) [Compound D161] |  |  | 5.00 to 6.00 | < 4.70 |
| Cn1ccc(C(=O)Nc2cccc(OCC(O)CN3CCc4ccccc4C3)c2)n1 (stereo not shown) [Compound D162] |  |  | 5.00 to 6.00 | < 4.70 |
| OC(COc1cccc(-c2ccc3cnoc3c2)c1)CN1CCc2ccccc2C1 (stereo not shown) [Compound D166] |  |  | 4.40 to 5.00 | < 4.70 |
| OC(COc1cccc(-c2ccccc2Oc2ccccc2)c1)CN1CCc2ccccc2C1 (stereo not shown) [Compound D167] |  |  | 5.00 to 6.00 | < 4.70 |
| COc1ccc(-c2cccc(OCC(O)CN3CCc4ccccc4C3)c2)cc1Cl (stereo not shown) [Compound D168] |  |  | 4.40 to 5.00 | < 4.70 |
| CC(=O)Nc1cccc(-c2cccc(OCC(O)CN3CCc4ccccc4C3)c2)c1 (stereo not shown) [Compound D169] |  |  | 6.00 to 7.00 | < 4.70 |
| OC(COc1cccc(-c2csc3ccccc23)c1)CN1CCc2ccccc2C1 (stereo not shown) [Compound D170] |  |  | 5.00 to 6.00 | < 4.70 |
| NC(=O)c1cccc(-c2cccc(OCC(O)CN3CCc4ccccc4C3)c2)c1 (stereo not shown) [Compound D171] |  |  | 5.00 to 6.00 | < 4.70 |
| N#Cc1cccc(-c2cccc(OCC(O)CN3CCc4ccccc4C3)c2)c1 (stereo not shown) [Compound D172] |  |  | 5.00 to 6.00 | < 4.70 |
| Cn1cnc2ccc(-c3cccc(OC[C@H](O)CN4CCc5ccccc5C4)c3)cc21 [Compound D174] |  |  | 6.00 to 7.00 | 5.00 to 6.00 |
